Measured values published in patent US9506938B2, “Methods for measuring platelet reactivity of individuals treated with drug eluting stents” (ACCUMETRICS, INC., priority 2007, dated 2016).
Values joined by “and” are separate entries in the source; they are usually repeats but may differ in a detail not shown here. Equal values may be shown once. Read-outs that look alike come from different tables or passages of the source.

Key:
[1] = tested on: ADP-induced human platelet aggregation; settings: read-out: IC50 for the inhibition of ADP-induced human platelet aggregation; cited from earlier work
P2Y12 receptor [2] = target: T1, P2Y12 receptor (Homo sapiens, UniProt Q9H244); settings: for percentage of inhibition: on clopidogrel at time of procedure; for percentage inhibition: clopidogrel naive, loaded with 600 mg
T1 sequence (Q9H244 whole entry): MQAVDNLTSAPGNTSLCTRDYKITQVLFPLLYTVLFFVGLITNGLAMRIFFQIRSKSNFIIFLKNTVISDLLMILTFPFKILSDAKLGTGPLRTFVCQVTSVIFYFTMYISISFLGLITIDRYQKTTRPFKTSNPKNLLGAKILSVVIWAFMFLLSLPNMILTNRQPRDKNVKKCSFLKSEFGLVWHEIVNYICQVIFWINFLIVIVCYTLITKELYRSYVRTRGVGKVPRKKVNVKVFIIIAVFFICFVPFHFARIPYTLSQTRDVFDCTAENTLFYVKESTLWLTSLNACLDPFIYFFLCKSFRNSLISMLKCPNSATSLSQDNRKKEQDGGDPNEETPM
Text: The VerifyNow™ System instrument is a turbidimetric-based optical detection system that measures platelet induced aggregation as an increase in light transmittance. The system includes an analyzer, disposable cartridge and controls. The cartridge contains reagents based on microparticle agglutination technology. The quality control system includes an electronic control, two levels of assayed “wet” controls (WQC), an in-cartridge humidity sensor, an in-packaging temperature indicator, and a test for concurrence of two assay channels. […] For use in the present methods the test cartridge of the system contains a lyophilized preparation comprising particles with passively bound GPIIb/IIIa receptor ligand, a composition of ADP and PGE1, and buffer. The patient sample is usually citrated whole blood, which is automatically dispensed from the blood collection tube into the cartridge by the analyzer, with no blood handling required by the user. The interaction is monitored by the infrared absorbency characteristics of the particles. As the particles interact with the platelets, the agglutination of the particles is measured through the optical system of the VerifyNow™ analyzer. The agglutination is detected as an increase in the transmission of infrared light through the sample. The reaction kinetics are analyzed and translated into “P2Y12 Response Units”, PRU.
Whole blood was obtained from the side port of the arterial sheath prior to anticoagulant or anti-thrombin therapy and by phlebotomy 12 hours post-PCI.
All patients received 325 mg uncoated aspirin the day of the procedure regardless of previous aspirin use. […] Either intra-procedural heparin (with a goal activated clotting time of >250 sec) or bivalirudin were administered during the procedure at operator discretion.
Patients were judged to be insulin resistant if their Homeostasis Model Assessment index, calculated as: [fasting insulin (μU/mL)]*[fasting glucose (mg/dl)]/405, was >3.0 or if they had diabetes requiring medication.

platelet aggregation = settings: Muller et al. 2003; cited from earlier work
P2Y12 receptor [3] = target: T1, P2Y12 receptor; experiment: VerifyNow P2Y12 assay, post-treatment platelet reactivity (PRU) in patients with sirolimus-eluting stents (Example 3); type: in vivo; parameters: The patient sample is usually citrated whole blood; endogenous in cells; host or cells: platelets in citrated whole blood of patients
Method: Patients on clopidogrel therapy or who were clopidogrel naïve were eligible for inclusion. […] The assay contains […] and 22 nM prostaglandin E1 to reduce the activation contribution from ADP binding to P2Y1 receptors. […] With this assay, a higher PRU reflects greater ADP-mediated platelet reactivity. The mean coefficient of variation of test precision has been reported to be 3.2% in patients with coronary artery disease. Interventional strategy was at the discretion of the operator.

[4] = tested on: patients undergoing PCI with DES
Method: Interventional strategy was at the discretion of the operator. Either intra-procedural unfractionated heparin (with a goal-activated clotting time>250 s) or bivalirudin was used during the procedure. All patients received SES, and they received aspirin 325 mg on the day of the procedure regardless of previous aspirin use.
“Technical success” was defined as a final diameter stenosis ≦30% and thrombolysis in myocardial infarction (TIMI) flow grade 3. Clinical endpoints measured were cardiovascular (CV) death, non-fatal myocardial infarction (MI), and stent thrombosis. “MI over follow-up” was defined as any typical rise and fall of cardiac biomarkers in the setting of clinical signs or symptoms consistent with cardiac ischaemia, following the American College of Cardiology definition (Cannon, et al., J. Am. Coll. Cardiol. (2001) 38:2114-2130). The Academic Research Consortium definitions were used for “stent thrombosis” (definite, probable, and possible) (Mauri, et al., N. Engl. J. Med. (2007) 356:1020-1029). “Subacute stent thrombosis” was defined as stent thrombosis occurring after discharge to 30 day follow-up, and late-stent thrombosis was defined as stent thrombosis occurring between 30 day and 6 month follow-ups.
The computer-based analysis program SPSS (Statistical Package for the Social Sciences, 12.0 for PC, SPSS Inc., Chicago, Ill., USA) was used for statistical calculations. […] Comparison of continuous variables was performed using Student's t-test. The χ^2 test was used to detect differences in categorical variables, and a Fisher's exact test was used when any expected cell count was <5 for a 2 by 2 table. The Kolmogorov-Smirnov test was used to test for normality. A receiver-operating characteristic (ROC) curve analysis was used to determine the ability of the VERIFYNOW™ P2Y12 assay to distinguish between patients with and without post-discharge events after PCI. The optimal cut-off point was calculated by determining the post-treatment PRU that provided the greatest sum of sensitivity and specificity. Bootstrap validation was performed using R software. Survival curves were generated using the Kaplan-Meier method, and the difference between curves was assessed by log-rank test. A P-value<0.05 was considered significant.

[5] = after discharge, 6 month follow-up, all patients
[6] = clopidogrel for minimum 3 months, high reactivity (n = 121)
[7] = clopidogrel for minimum 3 months, lower reactivity (n = 252)
[8] = clopidogrel for minimum 3 months, overall group (n = 373)
[9] = clopidogrel through 6 month follow-up, high reactivity (n = 108)
[10] = clopidogrel through 6 month follow-up, lower reactivity (n = 258)
[11] = clopidogrel through 6 month follow-up, overall group (n = 317)
[12] = patients with high post-treatment reactivity
[13] = patients without high post-treatment reactivity

## CCCCC[C@H](O)/C=C/[C@H]1[C@H](O)CC(=O)[C@@H]1CCCCCCC(=O)O [PGE1, prostaglandin E1]
[1]
  IC50: ~40 nM

## COC(=O)[C@H](c1ccccc1Cl)N1CCc2sccc2C1 [clopidogrel]
P2Y12 receptor [2]; Patient No. 1, acute thrombosis 80 minutes after PCI
  percentage of inhibition: 0%
P2Y12 receptor [2]; Patient No. 2, sub-acute thrombosis 6 days following PCI
  percentage of inhibition: 0%
P2Y12 receptor [2]; Patient No. 3, sub-acute thrombosis 34 days following PCI
  percentage inhibition: 0%
P2Y12 receptor [2]; Patient No. 4, sub-acute thrombosis 8 days following PCI
  percentage inhibition: 44%
P2Y12 receptor [2]; point-of-care assay, N = 280
  share of patients undergoing PCI with clopidogrel-induced platelet inhibition <10%: one quarter
Platelet aggregation
  patients receiving the drug who did not achieve the expected platelet aggregation inhibition: at least 10%
P2Y12 receptor [3]; all patients, n = 380
  mean post-treatment reactivity: 184±85 PRU
P2Y12 receptor [3]; clopidogrel-naive patients, 12 h after 600 mg loading dose
  post-treatment reactivity: 183±94 PRU
P2Y12 receptor [3]; individual patients
  post-treatment reactivity of the patients who had stent thrombosis while taking antiplatelet therapy: 283 PRU and 292 PRU and 236 PRU and 244 PRU and 271 PRU
P2Y12 receptor [3]; patients on previous clopidogrel therapy
  post-treatment reactivity: 186±73 PRU
P2Y12 receptor [3]; patients with adverse events
  platelet reactivity: 242 PRU
P2Y12 receptor [3]; patients without adverse events
  platelet reactivity: 186 PRU
[4]; 30 day to 6 month follow-up
  overall rate of late-stent thrombosis: 0.8%
[4]; [5]
  Non-fatal MI: 1.3%
  combined endpoint of CV death, non-fatal MI, or stent thrombosis: 2.6%
  episodes of stent thrombosis: 1.6%
[4]; [6]
  Non-fatal MI: 2 (1.7) n (%)
  Stent thrombosis: 5 (4.1) n (%)
[4]; [7]
  Non-fatal MI: 2 (0.8) n (%)
  Stent thrombosis: 0 n (%)
[4]; [8]
  Non-fatal MI: 4 (1.1) n (%)
  Stent thrombosis: 5 (1.3) n (%)
[4]; [9]
  Non-fatal MI: 2 (1.9) n (%)
  Stent thrombosis: 5 (4.6) n (%)
[4]; [10]
  Non-fatal MI: 2 (1.0) n (%)
  Stent thrombosis: 0 n (%)
[4]; [11]
  Non-fatal MI: 4 (1.3) n (%)
  Stent thrombosis: 5 (1.6) n (%)
[4]; discharge to 30 day follow-up
  overall rate of subacute stent thrombosis: 0.8%
[4]; [12]
  rate of CV mortality: 2.8%
  rate of all-cause death, non-fatal MI, or stent thrombosis: 6.5%
  rate of any stent thrombosis: 4.6%
  rate of combined endpoint of CV death, non-fatal MI, or stent thrombosis: 6.5%
  rate of definite or probable stent thrombosis: 2.8%
  survival rate free from the combined endpoint of CV death, non-fatal MI, or stent thrombosis: 91.4%
[4]; [13]
  rate of CV mortality: 0%
  rate of all-cause death, non-fatal MI, or stent thrombosis: 1.4%
  rate of any stent thrombosis: 0%
  rate of combined endpoint of CV death, non-fatal MI, or stent thrombosis: 1.0%
  rate of definite or probable stent thrombosis: 0%
  survival rate free from the combined endpoint of CV death, non-fatal MI, or stent thrombosis: 99.0%

## bivalirudin
P2Y12 receptor [3]; patients receiving intra-procedural heparin or bivalirudin
  post-treatment reactivity on clopidogrel by intra-procedural anticoagulant: 184±84 PRU
